According to ChEMBL document CHEMBL1201862, “PubChem BioAssay data set” (2004):
Active and inactive are the calls of the source.

What was measured:
Type in all cases: functional
[1] = target: T1, Sentrin-specific protease 6 (Homo sapiens, UniProt Q9GZR1);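 further: Luminescence-based dose-response confirmatory assay of SENP6 inhibition, following up an ultra-high-throughput screen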
T1 sequence (Q9GZR1 whole entry): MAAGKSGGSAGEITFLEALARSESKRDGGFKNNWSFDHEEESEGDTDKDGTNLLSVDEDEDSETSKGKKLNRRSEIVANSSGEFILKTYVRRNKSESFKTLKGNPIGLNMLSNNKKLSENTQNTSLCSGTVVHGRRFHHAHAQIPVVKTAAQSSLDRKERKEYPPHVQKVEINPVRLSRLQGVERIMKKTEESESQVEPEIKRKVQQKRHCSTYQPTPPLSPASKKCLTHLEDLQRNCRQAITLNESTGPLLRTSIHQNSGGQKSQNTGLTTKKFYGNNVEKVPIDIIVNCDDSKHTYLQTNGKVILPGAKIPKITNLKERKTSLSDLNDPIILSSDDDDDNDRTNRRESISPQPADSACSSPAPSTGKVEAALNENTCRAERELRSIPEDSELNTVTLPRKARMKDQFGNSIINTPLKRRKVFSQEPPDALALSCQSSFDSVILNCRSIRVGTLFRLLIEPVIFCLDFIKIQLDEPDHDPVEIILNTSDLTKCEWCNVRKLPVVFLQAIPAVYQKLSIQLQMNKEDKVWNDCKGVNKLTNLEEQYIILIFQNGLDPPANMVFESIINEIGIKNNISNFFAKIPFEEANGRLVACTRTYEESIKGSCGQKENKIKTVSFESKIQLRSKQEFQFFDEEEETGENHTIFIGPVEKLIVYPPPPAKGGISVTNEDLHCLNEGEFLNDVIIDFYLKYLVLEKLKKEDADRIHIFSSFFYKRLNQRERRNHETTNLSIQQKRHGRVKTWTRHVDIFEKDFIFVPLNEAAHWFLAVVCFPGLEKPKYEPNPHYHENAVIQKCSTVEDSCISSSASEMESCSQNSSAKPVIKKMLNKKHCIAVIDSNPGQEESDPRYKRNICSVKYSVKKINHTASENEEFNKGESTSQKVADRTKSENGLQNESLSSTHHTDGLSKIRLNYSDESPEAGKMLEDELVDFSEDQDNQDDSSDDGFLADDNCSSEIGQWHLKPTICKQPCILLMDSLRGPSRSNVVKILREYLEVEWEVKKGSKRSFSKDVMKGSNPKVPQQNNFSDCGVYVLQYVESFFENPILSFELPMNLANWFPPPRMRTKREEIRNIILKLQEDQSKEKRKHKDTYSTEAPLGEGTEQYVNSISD

[2] = target: T2, Sentrin-specific protease 7 (Homo sapiens, UniProt Q9BQF6);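 further: Luminescence-based dose-response confirmation of ultra-high-throughput screening hits, measuring inhibition of SENP7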
T2 sequence (Q9BQF6 whole entry): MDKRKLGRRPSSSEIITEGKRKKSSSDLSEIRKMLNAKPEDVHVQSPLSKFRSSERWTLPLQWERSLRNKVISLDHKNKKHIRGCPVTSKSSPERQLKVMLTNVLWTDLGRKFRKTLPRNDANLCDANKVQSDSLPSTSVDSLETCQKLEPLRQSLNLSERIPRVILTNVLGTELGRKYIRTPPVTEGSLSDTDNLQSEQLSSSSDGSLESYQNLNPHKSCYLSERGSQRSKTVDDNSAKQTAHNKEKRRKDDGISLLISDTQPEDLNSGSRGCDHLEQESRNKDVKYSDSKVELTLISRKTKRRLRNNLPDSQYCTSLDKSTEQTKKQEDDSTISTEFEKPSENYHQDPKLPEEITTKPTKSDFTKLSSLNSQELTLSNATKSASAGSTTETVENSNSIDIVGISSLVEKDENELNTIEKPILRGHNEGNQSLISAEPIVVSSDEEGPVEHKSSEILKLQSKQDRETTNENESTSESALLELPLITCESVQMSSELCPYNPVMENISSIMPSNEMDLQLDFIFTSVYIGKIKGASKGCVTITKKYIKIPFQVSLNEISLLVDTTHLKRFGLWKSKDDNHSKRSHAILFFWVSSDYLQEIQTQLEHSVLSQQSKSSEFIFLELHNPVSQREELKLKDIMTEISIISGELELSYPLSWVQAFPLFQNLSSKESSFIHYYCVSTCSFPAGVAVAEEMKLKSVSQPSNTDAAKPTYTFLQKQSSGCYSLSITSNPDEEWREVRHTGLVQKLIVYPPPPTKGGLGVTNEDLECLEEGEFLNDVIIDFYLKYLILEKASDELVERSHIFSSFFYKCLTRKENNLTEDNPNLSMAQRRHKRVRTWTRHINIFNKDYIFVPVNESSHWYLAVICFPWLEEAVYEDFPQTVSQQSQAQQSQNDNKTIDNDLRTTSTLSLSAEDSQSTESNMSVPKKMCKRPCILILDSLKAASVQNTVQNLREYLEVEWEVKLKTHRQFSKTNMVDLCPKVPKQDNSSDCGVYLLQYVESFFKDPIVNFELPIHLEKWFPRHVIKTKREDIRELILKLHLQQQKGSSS

[3] = target: Eukaryotic elongation factor 2 kinase (Homo sapiens, UniProt O00418)
[4] = target: 3-phosphoinositide-dependent protein kinase 1 (Homo sapiens, UniProt O15530);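 further: value comes from the Navigating the Kinome panel, PDPK1 member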
[5] = target: Testis-specific serine/threonine-protein kinase 1 (Homo sapiens, UniProt Q9BXA7)
Ephrin type-A receptor 2 = Ephrin type-A receptor 2 (Homo sapiens, UniProt P29317);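 further: EPHA2 tested as one member of a kinome-wide kinase panel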
[6] = target: Protein kinase C gamma type (Homo sapiens, UniProt P05129)
[7] = target: Serine/threonine-protein kinase PLK3 (Homo sapiens, UniProt Q9H4B4)
Focal adhesion kinase 1 = Focal adhesion kinase 1 (Homo sapiens, UniProt Q05397);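 further: measured as one member of a kinome panel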
[8] = target: Tyrosine-protein kinase Lyn (Homo sapiens, UniProt P07948);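 further: lyn as one member of a kinase panel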
[9] = target: Serine/threonine-protein kinase PAK 1 (Homo sapiens, UniProt Q13153)
[10] = target: Phosphorylase b kinase gamma catalytic chain, liver/testis isoform (Homo sapiens, UniProt P15735);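 further: PHKG2 measured as one member of a kinome-wide kinase panel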
[11] = target: Serine/threonine-protein kinase Chk2 (Homo sapiens, UniProt O96017);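 further: CHEK2 entry within a kinome-wide screening panel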
[12] = target: Cyclin-dependent kinase 1 (Homo sapiens, UniProt P06493);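 further: Kinome-wide panel profiling, with the target listed as panel member CDC2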
Chain of Cyclin-dependent kinase 1 (P06493 whole entry): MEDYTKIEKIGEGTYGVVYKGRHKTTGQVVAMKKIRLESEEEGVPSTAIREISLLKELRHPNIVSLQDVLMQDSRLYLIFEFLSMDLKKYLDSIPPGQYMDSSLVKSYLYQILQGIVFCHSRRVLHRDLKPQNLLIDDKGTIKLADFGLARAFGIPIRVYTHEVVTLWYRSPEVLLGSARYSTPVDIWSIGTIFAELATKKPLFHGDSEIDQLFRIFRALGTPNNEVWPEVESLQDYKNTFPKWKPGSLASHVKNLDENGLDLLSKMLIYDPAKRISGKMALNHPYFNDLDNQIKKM

Chain of Serine/threonine-protein kinase PAK 1 (Q13153 whole entry, canonical isoform): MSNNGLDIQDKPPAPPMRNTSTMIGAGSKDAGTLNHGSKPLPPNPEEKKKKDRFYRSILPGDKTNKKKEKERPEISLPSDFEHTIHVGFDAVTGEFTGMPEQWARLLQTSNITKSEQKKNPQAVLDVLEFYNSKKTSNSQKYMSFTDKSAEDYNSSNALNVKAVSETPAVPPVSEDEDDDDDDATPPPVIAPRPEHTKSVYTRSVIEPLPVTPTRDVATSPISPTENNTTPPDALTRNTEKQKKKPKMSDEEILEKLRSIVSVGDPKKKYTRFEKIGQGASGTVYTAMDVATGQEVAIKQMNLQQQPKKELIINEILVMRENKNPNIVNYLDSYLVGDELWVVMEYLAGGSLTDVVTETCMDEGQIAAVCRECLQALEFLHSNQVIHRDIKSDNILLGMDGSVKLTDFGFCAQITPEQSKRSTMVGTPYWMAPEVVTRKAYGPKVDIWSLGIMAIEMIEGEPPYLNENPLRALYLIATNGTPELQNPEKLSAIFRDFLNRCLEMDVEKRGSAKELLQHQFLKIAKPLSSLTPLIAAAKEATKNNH
Chain of Ephrin type-A receptor 2 (P29317 whole entry): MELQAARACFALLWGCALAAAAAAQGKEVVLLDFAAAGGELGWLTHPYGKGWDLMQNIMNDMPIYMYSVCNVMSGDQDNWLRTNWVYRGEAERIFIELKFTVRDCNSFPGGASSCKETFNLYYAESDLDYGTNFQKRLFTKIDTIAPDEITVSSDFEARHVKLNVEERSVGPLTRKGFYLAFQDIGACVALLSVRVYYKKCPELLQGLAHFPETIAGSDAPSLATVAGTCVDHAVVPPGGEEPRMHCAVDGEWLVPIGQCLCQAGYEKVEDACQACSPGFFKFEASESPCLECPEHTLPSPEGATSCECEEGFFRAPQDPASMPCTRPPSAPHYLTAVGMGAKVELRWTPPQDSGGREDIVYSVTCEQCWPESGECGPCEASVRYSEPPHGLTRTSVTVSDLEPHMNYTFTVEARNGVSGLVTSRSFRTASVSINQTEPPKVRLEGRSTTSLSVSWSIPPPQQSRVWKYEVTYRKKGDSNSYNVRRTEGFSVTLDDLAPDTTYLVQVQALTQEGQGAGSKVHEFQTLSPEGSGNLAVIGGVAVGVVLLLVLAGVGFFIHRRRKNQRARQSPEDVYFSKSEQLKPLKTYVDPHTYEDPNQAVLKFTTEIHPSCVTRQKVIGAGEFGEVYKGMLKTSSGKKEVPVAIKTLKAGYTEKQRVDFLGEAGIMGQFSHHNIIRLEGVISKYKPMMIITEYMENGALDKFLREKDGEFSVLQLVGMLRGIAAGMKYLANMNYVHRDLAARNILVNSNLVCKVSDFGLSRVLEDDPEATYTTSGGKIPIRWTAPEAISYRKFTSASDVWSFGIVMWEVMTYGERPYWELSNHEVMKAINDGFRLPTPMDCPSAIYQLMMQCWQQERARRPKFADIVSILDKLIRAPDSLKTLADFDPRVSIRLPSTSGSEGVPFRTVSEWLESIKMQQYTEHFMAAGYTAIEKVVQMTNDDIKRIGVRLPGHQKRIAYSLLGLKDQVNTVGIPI
Chain of 3-phosphoinositide-dependent protein kinase 1 (O15530 whole entry): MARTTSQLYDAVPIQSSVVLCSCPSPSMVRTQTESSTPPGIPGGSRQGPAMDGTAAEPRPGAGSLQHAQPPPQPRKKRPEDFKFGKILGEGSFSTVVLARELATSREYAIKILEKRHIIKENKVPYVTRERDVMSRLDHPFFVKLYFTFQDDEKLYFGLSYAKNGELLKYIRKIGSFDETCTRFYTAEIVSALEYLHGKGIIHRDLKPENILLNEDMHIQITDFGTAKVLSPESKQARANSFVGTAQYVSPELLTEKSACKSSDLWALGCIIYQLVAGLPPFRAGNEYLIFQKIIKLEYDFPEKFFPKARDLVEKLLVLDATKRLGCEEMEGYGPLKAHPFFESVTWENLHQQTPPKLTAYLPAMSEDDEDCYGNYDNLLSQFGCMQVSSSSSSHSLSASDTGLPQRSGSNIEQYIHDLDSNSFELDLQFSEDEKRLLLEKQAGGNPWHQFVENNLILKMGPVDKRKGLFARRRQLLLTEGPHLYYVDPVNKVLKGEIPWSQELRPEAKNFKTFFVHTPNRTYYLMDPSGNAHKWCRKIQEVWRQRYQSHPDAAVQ
Chain of Serine/threonine-protein kinase PLK3 (Q9H4B4 whole entry): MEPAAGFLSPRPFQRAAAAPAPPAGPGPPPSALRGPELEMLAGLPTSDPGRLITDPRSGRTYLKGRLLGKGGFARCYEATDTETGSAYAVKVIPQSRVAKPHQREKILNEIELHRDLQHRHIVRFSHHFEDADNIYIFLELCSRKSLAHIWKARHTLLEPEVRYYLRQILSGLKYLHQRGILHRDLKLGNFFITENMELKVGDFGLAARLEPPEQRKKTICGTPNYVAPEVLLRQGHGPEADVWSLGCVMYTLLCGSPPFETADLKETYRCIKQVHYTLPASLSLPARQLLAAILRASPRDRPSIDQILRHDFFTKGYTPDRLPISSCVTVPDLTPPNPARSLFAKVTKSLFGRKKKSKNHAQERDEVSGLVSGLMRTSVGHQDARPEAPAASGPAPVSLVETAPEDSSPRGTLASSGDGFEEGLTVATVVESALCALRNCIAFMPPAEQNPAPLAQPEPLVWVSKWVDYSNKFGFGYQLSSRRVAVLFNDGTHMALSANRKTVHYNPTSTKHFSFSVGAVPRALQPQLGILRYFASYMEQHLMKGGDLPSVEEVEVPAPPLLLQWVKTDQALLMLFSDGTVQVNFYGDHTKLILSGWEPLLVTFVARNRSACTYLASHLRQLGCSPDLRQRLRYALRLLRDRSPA
Chain of Eukaryotic elongation factor 2 kinase (O00418 whole entry): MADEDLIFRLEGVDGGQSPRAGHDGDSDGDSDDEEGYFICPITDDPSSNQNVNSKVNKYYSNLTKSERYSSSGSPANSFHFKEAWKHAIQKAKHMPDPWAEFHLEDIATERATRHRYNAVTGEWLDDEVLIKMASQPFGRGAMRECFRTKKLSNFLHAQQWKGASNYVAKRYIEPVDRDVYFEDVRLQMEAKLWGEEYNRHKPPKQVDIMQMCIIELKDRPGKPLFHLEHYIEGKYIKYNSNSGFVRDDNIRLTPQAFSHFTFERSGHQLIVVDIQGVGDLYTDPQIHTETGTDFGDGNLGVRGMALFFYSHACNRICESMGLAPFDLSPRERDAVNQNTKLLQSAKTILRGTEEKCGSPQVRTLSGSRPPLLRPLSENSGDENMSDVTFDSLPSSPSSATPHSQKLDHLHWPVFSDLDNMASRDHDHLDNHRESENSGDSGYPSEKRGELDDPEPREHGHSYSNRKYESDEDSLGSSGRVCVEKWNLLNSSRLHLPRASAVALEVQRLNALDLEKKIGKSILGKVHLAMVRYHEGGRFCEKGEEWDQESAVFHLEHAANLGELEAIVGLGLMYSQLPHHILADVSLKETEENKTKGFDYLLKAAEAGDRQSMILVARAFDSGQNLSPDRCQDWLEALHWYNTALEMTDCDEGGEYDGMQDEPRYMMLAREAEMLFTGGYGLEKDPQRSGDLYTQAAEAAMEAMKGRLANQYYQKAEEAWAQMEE
Chain of Tyrosine-protein kinase Lyn (P07948 whole entry): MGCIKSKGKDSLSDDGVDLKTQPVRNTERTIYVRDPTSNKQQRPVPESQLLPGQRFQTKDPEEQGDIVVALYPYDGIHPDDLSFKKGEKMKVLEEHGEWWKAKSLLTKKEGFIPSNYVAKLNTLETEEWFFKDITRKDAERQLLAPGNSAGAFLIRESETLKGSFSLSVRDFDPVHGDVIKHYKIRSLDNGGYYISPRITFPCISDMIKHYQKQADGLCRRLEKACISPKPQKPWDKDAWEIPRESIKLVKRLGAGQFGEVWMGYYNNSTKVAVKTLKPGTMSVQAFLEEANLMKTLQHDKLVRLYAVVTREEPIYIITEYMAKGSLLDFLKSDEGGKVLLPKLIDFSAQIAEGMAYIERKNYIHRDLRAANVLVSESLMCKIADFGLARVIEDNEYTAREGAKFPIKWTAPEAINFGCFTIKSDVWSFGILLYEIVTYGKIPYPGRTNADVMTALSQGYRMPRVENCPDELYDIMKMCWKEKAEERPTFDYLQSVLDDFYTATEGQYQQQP

Row | Structure (SMILES) | IC50 [1] | IC50 [2] | Ki [3] | Ki [4] | Ki [5] | Ki (Ephrin type-A receptor 2) | Ki [6] | Ki [7] | Ki (Focal adhesion kinase 1) | Ki [8] | Ki [9] | Ki [10] | Ki [11] | Ki [12]
1 | COc1ccc(-n2c(NC(=O)c3ccco3)c(C#N)c3nc4ccccc4nc32)cc1 | 4.07 µM (active) | 5.78 µM (active) |  |  |  |  |  |  |  |  |  |  |  | 
2 | Cc1n[nH]c2ccc(-c3cncc(OCC(N)Cc4ccc(Cl)c(Cl)c4)c3)cc12 (centres undefined) |  |  | 3.16 µM (active) | 2 µM (active) | 100 nM (active) | > 3.16 µM (inactive) | 15.8 nM (active) | > 7.94 µM (inactive) | > 1.58 µM (inactive) | > 1.58 µM (inactive) | 794 nM (active) | 1 µM (active) | 398 nM (active) | 50.1 nM (active)
